Read-outs that look alike come from different tables or passages of the source.
Legend:
[1] = biological target: T1, human full length PIK3KA Wild-type (p110α/p85α complex) (Homo sapiens, UniProt P42336); experiment: PI3K-Alpha Kinase (PIK3CA) biochemical activity, wild-type (ADP-Glo); settings: 20 uM ATP
T1 construct: Recombinant, catalytically active human full length PIK3KA Wild-type and H1047R mutant were purchased; 6xHis (N); purchased EMD Millipore Sigma 14-602M
Outline: (§1)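 ADP formation, measured by ADP-Glo luminescence after reaction to about 10% ATP conversion at 27° C., gives 10-point 4-parameter IC50 curves normalized to no-enzyme and DMSO controls. Lipid substrate was PIP2diC8 or Soy PI at 50 uM, with 20 uM ATP. WT or H1047R p110α/p85α complex (1-5 nM) was preincubated 1 h with compound.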

[2] = biological target: PI3K-α (PIK3CA) in MDA-MB-453 cells (Homo sapiens, UniProt P42336); experiment: PI3K-Alpha Kinase (PIK3CA) activity in vitro cell based assay (AlphaLisa SureFire)
Outline: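 Serum-free MDA-MB-453 cells with 1 μg/mL insulin treated 3 h with a 10-point compound series in 0.3% DMSO; lysates analysed by AlphaLisa SureFire. Relative IC50 from 4-parameter fit of % inhibition versus DMSO (max) and 1 μM GDC-0032 (min) controls, duplicates.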

[3] = biological target: T2, human full length PIK3KA H1047R mutant (p110α/p85α complex) (Homo sapiens, UniProt P42336, H1047R); experiment: PI3K-Alpha Kinase (PIK3CA) biochemical activity, H1047R mutant (ADP-Glo); settings: 20 uM ATP
T2 construct: Recombinant, catalytically active human full length PIK3KA Wild-type and H1047R mutant were purchased; 6xHis (N); purchased EMD Millipore Sigma 14-792M
Outline: as §1

[4] = read-out: PI3K-α (PIK3CA) in vitro cell based assay IC50, 0% FBS, 3 hours treatment
[5] = 0% FBS, 3 hours treatment, read-out: PI3K-α (PIK3CA) in vitro cell based assay IC50

Chain of PI3K-α (PIK3CA) in MDA-MB-453 cells (P42336 whole entry): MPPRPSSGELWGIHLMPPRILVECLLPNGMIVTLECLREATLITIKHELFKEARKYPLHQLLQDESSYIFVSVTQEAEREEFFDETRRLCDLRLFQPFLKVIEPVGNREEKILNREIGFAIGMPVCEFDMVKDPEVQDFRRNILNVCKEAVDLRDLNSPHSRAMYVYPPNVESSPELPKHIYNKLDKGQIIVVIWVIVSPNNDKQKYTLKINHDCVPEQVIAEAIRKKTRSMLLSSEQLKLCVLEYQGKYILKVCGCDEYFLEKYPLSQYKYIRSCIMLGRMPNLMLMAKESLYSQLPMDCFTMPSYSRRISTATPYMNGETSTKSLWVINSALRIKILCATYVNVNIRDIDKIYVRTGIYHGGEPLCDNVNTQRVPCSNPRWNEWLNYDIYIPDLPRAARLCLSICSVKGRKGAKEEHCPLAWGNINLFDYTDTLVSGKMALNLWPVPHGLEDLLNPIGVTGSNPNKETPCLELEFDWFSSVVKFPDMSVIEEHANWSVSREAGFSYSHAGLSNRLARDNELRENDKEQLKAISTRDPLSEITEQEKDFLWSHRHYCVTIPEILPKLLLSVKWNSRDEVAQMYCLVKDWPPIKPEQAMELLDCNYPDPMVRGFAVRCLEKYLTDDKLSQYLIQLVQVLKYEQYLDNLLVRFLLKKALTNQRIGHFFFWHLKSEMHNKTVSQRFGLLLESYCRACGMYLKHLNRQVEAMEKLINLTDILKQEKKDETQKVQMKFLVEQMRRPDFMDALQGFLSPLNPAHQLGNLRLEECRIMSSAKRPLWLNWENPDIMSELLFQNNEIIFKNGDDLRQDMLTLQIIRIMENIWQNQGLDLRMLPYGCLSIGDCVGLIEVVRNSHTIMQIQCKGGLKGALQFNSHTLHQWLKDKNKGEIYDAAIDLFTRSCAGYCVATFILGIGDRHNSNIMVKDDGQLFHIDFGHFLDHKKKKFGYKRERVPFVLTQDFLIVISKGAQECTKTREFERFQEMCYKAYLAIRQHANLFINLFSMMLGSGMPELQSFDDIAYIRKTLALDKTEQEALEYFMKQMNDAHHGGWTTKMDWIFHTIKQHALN
Chain of PI3K-α (PIK3CA) in MDA-MB-453 cells (P27986 2-724, further chain): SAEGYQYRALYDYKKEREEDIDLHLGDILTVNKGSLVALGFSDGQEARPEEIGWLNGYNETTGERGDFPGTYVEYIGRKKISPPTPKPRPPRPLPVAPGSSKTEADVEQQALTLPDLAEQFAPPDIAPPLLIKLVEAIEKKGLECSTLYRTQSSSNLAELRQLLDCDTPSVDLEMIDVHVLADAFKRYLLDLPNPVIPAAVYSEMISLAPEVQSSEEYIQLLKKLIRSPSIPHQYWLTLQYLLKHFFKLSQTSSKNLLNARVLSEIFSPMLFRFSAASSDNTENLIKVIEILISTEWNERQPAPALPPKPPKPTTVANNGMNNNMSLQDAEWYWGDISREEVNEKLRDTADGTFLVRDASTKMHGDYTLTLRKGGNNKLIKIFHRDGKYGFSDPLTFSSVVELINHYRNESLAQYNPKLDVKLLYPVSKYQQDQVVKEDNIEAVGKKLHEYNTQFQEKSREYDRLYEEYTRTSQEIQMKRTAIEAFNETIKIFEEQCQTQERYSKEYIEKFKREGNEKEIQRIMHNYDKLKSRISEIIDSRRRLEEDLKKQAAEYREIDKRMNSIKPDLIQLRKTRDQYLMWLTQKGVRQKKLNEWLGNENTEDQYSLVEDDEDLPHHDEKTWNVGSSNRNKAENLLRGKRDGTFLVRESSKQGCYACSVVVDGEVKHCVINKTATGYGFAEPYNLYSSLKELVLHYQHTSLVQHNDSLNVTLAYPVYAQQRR
T2 sequence (P42336 whole entry H1047R): as the sequence (P42336 whole entry) above, with H1047R counted along it
T2 sequence (P27986 whole entry partner): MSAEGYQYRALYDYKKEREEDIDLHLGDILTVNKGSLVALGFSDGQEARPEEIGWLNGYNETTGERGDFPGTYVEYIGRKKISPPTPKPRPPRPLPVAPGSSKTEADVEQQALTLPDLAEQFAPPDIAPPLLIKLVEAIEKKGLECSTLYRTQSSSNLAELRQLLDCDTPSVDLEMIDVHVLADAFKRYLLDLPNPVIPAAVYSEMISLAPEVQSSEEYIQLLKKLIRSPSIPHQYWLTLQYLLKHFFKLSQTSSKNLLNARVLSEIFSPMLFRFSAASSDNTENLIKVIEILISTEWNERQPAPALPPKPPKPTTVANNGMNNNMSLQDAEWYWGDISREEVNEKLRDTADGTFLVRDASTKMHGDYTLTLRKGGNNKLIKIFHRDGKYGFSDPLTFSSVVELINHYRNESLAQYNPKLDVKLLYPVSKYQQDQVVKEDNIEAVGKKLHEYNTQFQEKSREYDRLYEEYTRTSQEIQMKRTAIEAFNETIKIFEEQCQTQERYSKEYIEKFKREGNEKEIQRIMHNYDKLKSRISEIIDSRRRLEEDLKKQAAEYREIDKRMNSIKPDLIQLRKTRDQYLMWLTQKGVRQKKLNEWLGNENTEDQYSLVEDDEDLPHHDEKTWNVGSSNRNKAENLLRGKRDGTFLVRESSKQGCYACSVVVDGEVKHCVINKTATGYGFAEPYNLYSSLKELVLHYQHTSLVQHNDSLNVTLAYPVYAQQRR

SMILES | IC50 ([1]; Soy PI lipid substrate) [nM] | IC50 [2, 4] [nM] | IC50 ([3]; Soy PI lipid substrate) [nM] | IC50 ([1]; PIP2diC8 lipid substrate) [nM] | IC50 [2, 5] [nM] | IC50 ([3]; PIP2diC8 lipid substrate) [nM]
CC(Nc1ccccc1C(=O)O)c1cc(F)cc2c(=O)cc(-c3ccccn3)oc12 (single isomer, unassigned) [Example 46, 2-[1-[6-Fluoro-4-oxo-2-(2-pyridyl)chromen-8-yl]ethylamino]benzoic acid, Isomer 1,2,2,2-trifluoroacetic acid] | 5000 to 10000 | < 50 | < 500 |  |  | 
Cc1cc(C(C)Nc2ccccc2C(=O)O)c2oc(-c3ccc(OC(C)C)nc3)cc(=O)c2c1 (single isomer, unassigned; isomer 1) [Example 30, 2-[1-[2-(6-Isopropoxy-3-pyridyl)-6-methyl-4-oxo-chromen-8-yl]ethylamino]benzoic acid, Isomer 1] |  |  |  | > 10000 | > 500 | 5000 to 10000
Cc1cc(C(C)Nc2ccccc2C(=O)O)c2oc(-c3cnc(N(C)C)s3)c(C)c(=O)c2c1 (single isomer, unassigned; isomer 1) [Example 130, 2-[1-[2-[2-(Dimethylamino)thiazol-5-yl]-3,6-dimethyl-4-oxo-chromen-8-yl]ethylamino]benzoic acid, Isomer 1] | 500 to 1000 |  | < 500 |  | < 50 | 
Cc1cc(C(C)Nc2cccc(F)c2C(=O)O)c2oc(-c3cnn(-c4ccc(C#N)cc4)c3)cc(=O)c2c1 (single isomer, unassigned; isomer 2) [Example 113, 2-[1-2-[1-(4-Cyanophenyl)pyrazol-4-yl]-6-methyl-4-oxo-chromen-8-yl]ethylamino]-6-fluoro-benzoic acid, Isomer 2] | 1000 to 5000 |  | < 500 |  | 100 to 500 | 
Cc1cc(C(C)Nc2ccccc2C(=O)O)c2oc(-c3cnc(-c4ccccc4)s3)c(C)c(=O)c2c1 (single isomer, unassigned) [Example 126, 2-[1-[3,6-Dimethyl-4-oxo-2-(2-phenylthiazol-5-yl)chromen-8-yl]ethylamino]benzoic acid, Isomer 1,2,2,2-trifluoroacetic acid] | < 500 | 50 to 100 | < 500 |  |  | 
COc1cccc(-c2cc(=O)c3cc(C)cc(C(C)Nc4ccccc4C(=O)O)c3o2)n1 (single isomer, unassigned; isomer 2) [Example 22, 2-[1-[2-(6-Methoxy-2-pyridyl)-6-methyl-4-oxo-chromen-8-yl]ethylamino]benzoic acid, Isomer 2] | 1000 to 5000 |  | < 500 |  | 50 to 100 | 
COc1ccc(-n2cc(-c3cc(=O)c4cc(C)cc(C(C)Nc5ccccc5C(=O)O)c4o3)cn2)cc1 (single isomer, unassigned) [Example 79, 2-[1-[2-[1-(4-Methoxyphenyl)pyrazol-4-yl]-6-methyl-4-oxo-chromen-8-yl]ethylamino]benzoic acid, Isomer 2,2,2,2-trifluoroacetic acid] | 1000 to 5000 | 50 to 100 | < 500 |  |  | 
COc1ccc(-c2oc3c(C(C)Nc4ccccc4C(=O)O)cc(C)cc3c(=O)c2C)cn1 (single isomer, unassigned) [Example 65, 2-[1-[2-(6-Methoxy-3-pyridyl)-3,6-dimethyl-4-oxo-chromen-8-yl]ethylamino]benzoic acid, Isomer 1,2,2,2-trifluoroacetic acid] | 1000 to 5000 | < 50 | < 500 |  |  | 
Cc1cc(C(C)Nc2ccccc2C(=O)O)c2oc(-c3nccnc3C)cc(=O)c2c1 (single isomer, unassigned; isomer 2) [Example 29, 2-[1-[6-Methyl-2-(3-methylpyrazin-2-yl)-4-oxo-chromen-8-yl]ethylamino]benzoic acid, Isomer 2] | 5000 to 10000 |  | < 500 |  | 100 to 500 | 
Cc1cc(C(C)Nc2ccccc2C(=O)O)c2oc(-c3ccc(F)nc3)cc(=O)c2c1 (single isomer, unassigned; isomer 1) [Example 35, 2-[1-[2-(6-Fluoro-3-pyridyl)-6-methyl-4-oxo-chromen-8-yl]ethylamino]benzoic acid, Isomer 1] | > 10000 |  | > 10000 |  | > 500 | 
